According to patent US5686485A, “Physiologically active EI-1941 compounds” (Kyowa Hakko Kogyo Co., Ltd., priority 1995, dated 1997):

How the values were obtained:
Solubility = format: physicochemical; conditions: in methanol and acetonitrile
[1] = tested on: production of IL-1β by human monocyte-derived THP-1 cells; assay: Inhibitory activity against the production of IL-1β by human monocyte-derived THP-1 cells (LPS-stimulated, ELISA); format: cell-based; conditions: THP-1 cells differentiated with PMA 30 nM, 65 h, LPS 25 μg/ml, 4 hours, serum-free RPMI1640, test compound 0.05-50 μg/ml, read-out: IC50 (50% inhibitory concentration), IL-1 production inhibition
Method: The inhibitory activity of EI-1941 compounds against the production of IL-1β by human monocyte-derived THP-1 cells (ATCC No. TIB 202) was examined in the following manner. The amount of IL-1β was determined by the ELISA method.
THP-1 cells were suspended in RPMI1640 medium (Nissui Pharmaceutical Co., Ltd.) containing 10% inactivated fetal calf serum at a concentration of 1×10^5 cells/ml. The cell suspension was put into wells of a 24-well plate in an amount of 1 ml/well. Phorbol 12-myristate 13-acetate (PMA, final concentration: 30 nM) was added to the wells, followed by incubation in a 5% CO2 -incubator at 37° C. for 65 hours to differentiate the cells into macrophage.
Then, the plate was gently washed with serum-free RPMI1640 medium to remove the cells which were not adhered to the wells, and the residue was cultured for 4 hours in serum-free RPMI1640 medium (1 ml/well) containing lipopolysaccharide (LPS, final concentration: 25 μg/ml) and a test compound (final concentration: 0.05-50 μg/ml).
After the completion of culturing, the amount of IL-1β released into the culture supernatant was determined by using an IL-1β determination kit (Amersham Corp.).
The IL-1 production inhibition rate was calculated according to the following equation to obtain IC50 (50% inhibitory concentration).
IL-1 production inhibition rate (%)=(A-B)/(A-C)×100
A: Amount of IL-1 produced when only LPS is added […]

| IC50 [1] [nM] | Compound | Solubility (Solubility) |
| --- | --- | --- |
| 1000 | CCCC1CC2=C(C(O)O1)C(O)C1OC1C2=O (centres unmarked) [EI-1941-1] | Readily soluble in methanol and acetonitrile |
| 2200 | CCCC1CC2=C(C(=O)O1)C(O)C1OC1C2=O (centres unmarked) [EI-1941-2] | Readily soluble in methanol and acetonitrile |
|  | CCCC1CC2=C(C(=O)O1)C(O)C(O)CC2=O (centres unmarked) [EI-1941-3] | Readily soluble in methanol and acetonitrile |
